Results published in US4131620A, “Sulfamic acid halides and their manufacture” (BASF Aktiengesellschaft, priority 1976, dated 1978).

Experiments:
[1] = tested on: crop plants; assay: herbicidal action, post-emergence treatment in a greenhouse, crop plants; assay type: in vivo; conditions: after one week
Experimental: (§1) A range of crop plants and of unwanted plants are treated in a greenhouse. The test plants, segregated according to species, are grown in plastic pots. When they have grown to from 2 to 15 cm, depending on the age and the habit of the species, emulsions of the end product I prepared in Example 10 are applied to the leaves by means of jets which produce a fine spray (post-emergence treatment). Water (300 liters per hectare) serves as the vehicle and dispersing medium. […] The results are rated on a scale of from 0 to 100, with O = no damage and 100 = complete destruction.

[2] = tested on: Avena sativa; assay: herbicidal action, post-emergence method, in a greenhouse; assay type: in vivo, Avena sativa (oats); conditions: Avena sat., 3 kg/ha of active ingredient (footnote +), 0 = no damage, 100 = complete destruction
Experimental: as §1

[3] = tested on: Glycine max; assay: as above; assay type: in vivo, Glycine max (soy beans); conditions: Glyc. max, 0 = no damage, 100 = complete destruction
Experimental: as §1

[4] = tested on: Ludwigia spp.; assay: as above; assay type: in vivo; conditions: Ludw. spp., 0 = no damage, 100 = complete destruction
Experimental: (§2) A range of crop plants and of unwanted plants are treated in a greenhouse. The test plants, segregated according to species, are grown in plastic pots. […] Water (300 liters per hectare) serves as the vehicle and dispersing medium. […] The results are rated on a scale of from 0 to 100, with O = no damage and 100 = complete destruction.

[5] = tested on: Sinapis alba; assay: as above; assay type: in vivo, Sinapis alba (white mustard); conditions: Sin. alba, 3 kg/ha of active ingredient (footnote +), 0 = no damage, 100 = complete destruction
Experimental: as §1

[6] = tested on: Cyperus esculentus; assay: as above; assay type: in vivo, Cyperus esculentus (yellow nutsedge); conditions: Cyp. esc., 0 = no damage, 100 = complete destruction
Experimental: as §2

[7] = tested on: Sida spinosa; assay: as above; assay type: in vivo, Sida spinosa (teaweed (pricly sida)); conditions: Sida spin., 0 = no damage, 100 = complete destruction
Experimental: as §2

[8] = tested on: Ipomoea spp.; assay: as above; assay type: in vivo, Ipomoea spp. (morning glory); conditions: Ipom. spp., 0 = no damage, 100 = complete destruction
Experimental: as §2

[9] = tested on: Amaranthus retroflexus; assay: as above; assay type: in vivo, Amaranthus retroflexus (pigweed); conditions: Amar. retr., 0 = no damage, 100 = complete destruction
Experimental: as §2

[10] = tested on: Ammannia coccinea; assay: as above; assay type: in vivo, Ammannia coccinea (redstem); conditions: Amm. cocc., 0 = no damage, 100 = complete destruction
Experimental: as §1

[11] = tested on: Sesbania exaltata; assay: as above; assay type: in vivo, Sesbania exaltata (hemp sesbania (coffeeweed)); conditions: Sesb. exalt., 0 = no damage, 100 = complete destruction
Experimental: as §1

[12] = tested on: unwanted plants; assay: herbicidal action, post-emergence treatment in a greenhouse, unwanted plants; assay type: in vivo
Experimental: as §1

[13] = tested on: Oryza sativa; assay: herbicidal action, post-emergence method, in a greenhouse; assay type: in vivo, Oryza sativa (rice); conditions: Oryz. sat., 0 = no damage, 100 = complete destruction
Experimental: as §2

CCN(COC)S(=O)(=O)N1c2ccccc2C(=O)N(C(C)C)S1(=O)=O [Example 10, 3-isopropyl-1-N'-methoxymethyl-N'-ethylsulfamoyl-2,1,3-benzothiadiazin-4-one-2,2-dioxide]
damage to crop plants (in words) [1]: very little or no attach
% damage [2]: 0%
% damage ([3]; 2.0 kg/ha of active ingredient): 5%
% damage ([3]; 4.0 kg/ha of active ingredient): 15%
% damage ([4]; 2.0 kg/ha of active ingredient): 50%
% damage ([4]; 4.0 kg/ha of active ingredient): 75%
% damage [5]: 100%
% damage ([6]; 2.0 kg/ha of active ingredient): 60%
% damage ([6]; 4.0 kg/ha of active ingredient): 70%
% damage ([7]; 2.0 kg/ha of active ingredient): 95%
% damage ([7]; 4.0 kg/ha of active ingredient): 95%
% damage ([8]; 2.0 kg/ha of active ingredient): 50%
% damage ([8]; 4.0 kg/ha of active ingredient): 90%
% damage ([9]; 2.0 kg/ha of active ingredient): 60%
% damage ([9]; 4.0 kg/ha of active ingredient): 60%
% damage ([10]; 2.0 kg/ha of active ingredient): 50%
% damage ([10]; 4.0 kg/ha of active ingredient): 60%
% damage ([11]; 2.0 kg/ha of active ingredient): 50%
% damage ([11]; 4.0 kg/ha of active ingredient): 60%
onset of action (in words) [12]: The action sets in rapidly
damage to unwanted plants (in words) ([12]; after one week): dying
% damage ([13]; 2.0 kg/ha of active ingredient): 0%
% damage ([13]; 4.0 kg/ha of active ingredient): 0%
